According to ChEMBL document CHEMBL1201862, “PubChem BioAssay data set” (2004):
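Where inhibition never reached the appropriate level, the endpoint shown equals the highest concentration tested. Otherwise, values were interpolated linearly from a five-concentration, 48-hour dose response in 96-well plates. Here, GI50 denotes the concentration required for 50% inhibition of growth.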 Active and inactive are the calls of the source. No stated cut-off is given here; in the data, active = GI50 up to about 1.1 µM and inactive = higher.

Legend:
Test in all cases: NCI anticancer screen, dose series, 48 h
CCRF-CEM = test system: CCRF-CEM
NCI-H226 = test system: NCI-H226
NCI-H460 = test system: NCI-H460
CAKI-1 = test system: CAKI-1
OVCAR-3 = test system: OVCAR-3
DU-145 = test system: DU-145
HCT-15 = test system: HCT-15
UACC-257 = test system: UACC-257
SF-268 = test system: SF-268
SN12C = test system: SN12C
MDA-MB-231 = test system: MDA-MB-231
SK-MEL-5 = test system: SK-MEL-5
SK-MEL-2 = test system: SK-MEL-2
MDA-MB-435 = test system: MDA-MB-435
LOX IMVI = test system: LOX IMVI
ACHN = test system: ACHN
HCC 2998 = test system: HCC 2998
OVCAR-8 = test system: OVCAR-8
TK-10 = test system: TK-10
M14 = test system: M14
SNB-75 = test system: SNB-75
786-0 = test system: 786-0
HOP-62 = test system: HOP-62
SF-295 = test system: SF-295
SK-OV-3 = test system: SK-OV-3
U-251 = test system: U-251
NCI-H23 = test system: NCI-H23
K562 = test system: K562
A498 = test system: A498
SW-620 = test system: SW-620
BT-549 = test system: BT-549
RXF 393 = test system: RXF 393
RPMI-8226 = test system: RPMI-8226
Hs-578T = test system: Hs-578T
HOP-92 = test system: HOP-92
SR = test system: SR
UACC-62 = test system: UACC-62
SNB-19 = test system: SNB-19
KM12 = test system: KM12
NCI-H522 = test system: NCI-H522
OVCAR-5 = test system: OVCAR-5
SK-MEL-28 = test system: SK-MEL-28
UO-31 = test system: UO-31
Malme-3M = test system: Malme-3M
EKVX = test system: EKVX
A549 = test system: A549
HL-60 = test system: HL-60
HCT-116 = test system: HCT-116
MCF7 = test system: MCF7
HT-29 = test system: HT-29
MDA-N = test system: MDA-N
NCI/ADR-RES = test system: NCI/ADR-RES
T47D = test system: T47D
COLO 205 = test system: COLO 205
OVCAR-4 = test system: OVCAR-4
IGROV-1 = test system: IGROV-1
PC-3 = test system: PC-3
MOLT-4 = test system: MOLT-4
SF-539 = test system: SF-539

Compound: CN(C)Cc1cc(Cl)c(O)c(CN(C)C)c1
- GI50 (CCRF-CEM): > 100 µM (inactive)
- GI50 (NCI-H226): > 100 µM (inactive)
- GI50 (NCI-H460): > 100 µM (inactive)
- GI50 (CAKI-1): > 100 µM (inactive)
- GI50 (OVCAR-3): > 100 µM (inactive)
- GI50 (DU-145): > 100 µM (inactive)
- GI50 (HCT-15): > 100 µM
- GI50 (UACC-257): > 100 µM (inactive)
- GI50 (SF-268): > 100 µM (inactive)
- GI50 (SN12C): > 100 µM (inactive)
- GI50 (MDA-MB-231): > 100 µM (inactive)
- GI50 (SK-MEL-5): > 100 µM (inactive)
- GI50 (SK-MEL-2): > 100 µM (inactive)
- GI50 (MDA-MB-435): > 100 µM (inactive)
- GI50 (LOX IMVI): > 100 µM (inactive)
- GI50 (ACHN): > 100 µM (inactive)
- GI50 (HCC 2998): > 100 µM (inactive)
- GI50 (OVCAR-8): > 100 µM (inactive)
- GI50 (TK-10): > 100 µM (inactive)
- GI50 (M14): > 100 µM (inactive)
- GI50 (SNB-75): > 100 µM (inactive)
- GI50 (786-0): > 100 µM (inactive)
- GI50 (HOP-62): > 100 µM (inactive)
- GI50 (SF-295): > 100 µM (inactive)
- GI50 (SK-OV-3): > 100 µM (inactive)
- GI50 (U-251): > 100 µM (inactive)
- GI50 (NCI-H23): > 100 µM (inactive)
- GI50 (K562): > 100 µM (inactive)
- GI50 (A498): > 100 µM (inactive)
- GI50 (SW-620): > 100 µM (inactive)
- GI50 (BT-549): > 100 µM (inactive)
- GI50 (RXF 393): > 100 µM (inactive)
- GI50 (RPMI-8226): > 100 µM (inactive)
- GI50 (Hs-578T): > 100 µM (inactive)
- GI50 (HOP-92): > 100 µM (inactive)
- GI50 (SR): > 100 µM (inactive)
- GI50 (UACC-62): > 100 µM (inactive)
- GI50 (SNB-19): > 100 µM (inactive)
- GI50 (KM12): > 100 µM (inactive)
- GI50 (NCI-H522): > 100 µM (inactive)
- GI50 (OVCAR-5): > 100 µM (inactive)
- GI50 (SK-MEL-28): > 100 µM (inactive)
- GI50 (UO-31): > 100 µM (inactive)
- GI50 (Malme-3M): > 100 µM (inactive)
- GI50 (EKVX): > 100 µM (inactive)
- GI50 (A549): > 100 µM (inactive)
- GI50 (HL-60): > 100 µM (inactive)
- GI50 (HCT-116): > 100 µM (inactive)
- GI50 (MCF7): > 100 µM (inactive)
- GI50 (HT-29): > 100 µM (inactive)
- GI50 (MDA-N): > 100 µM (inactive)
- GI50 (NCI/ADR-RES): > 100 µM (inactive)
- GI50 (T47D): > 100 µM (inactive)
- GI50 (COLO 205): > 100 µM (inactive)
- GI50 (OVCAR-4): > 100 µM (inactive)
- GI50 (IGROV-1): > 100 µM (inactive)
- GI50 (PC-3): > 100 µM (inactive)

Compound: COC(=O)c1ccccc1/C=C1\Cc2ccc3c(c2C1=O)CCCC3
- GI50 (MOLT-4): > 100 µM (inactive)
- GI50 (SF-539): > 100 µM (inactive)
- GI50 (CCRF-CEM): > 100 µM (inactive)
- GI50 (NCI-H226): > 100 µM (inactive)
- GI50 (NCI-H460): > 100 µM (inactive)
- GI50 (CAKI-1): > 100 µM (inactive)
- GI50 (OVCAR-3): > 100 µM (inactive)
- GI50 (DU-145): > 100 µM (inactive)
- GI50 (HCT-15): > 100 µM
- GI50 (UACC-257): > 100 µM (inactive)
- GI50 (SF-268): > 100 µM (inactive)
- GI50 (SN12C): > 100 µM (inactive)
- GI50 (MDA-MB-231): > 100 µM (inactive)
- GI50 (SK-MEL-2): > 100 µM (inactive)
- GI50 (MDA-MB-435): > 100 µM (inactive)
- GI50 (LOX IMVI): > 100 µM (inactive)
- GI50 (ACHN): > 100 µM (inactive)
- GI50 (HCC 2998): > 100 µM (inactive)
- GI50 (OVCAR-8): > 100 µM (inactive)
- GI50 (TK-10): > 100 µM (inactive)
- GI50 (M14): > 100 µM (inactive)
- GI50 (SNB-75): > 100 µM (inactive)
- GI50 (786-0): > 100 µM (inactive)
- GI50 (HOP-62): > 100 µM (inactive)
- GI50 (SF-295): > 100 µM (inactive)
- GI50 (SK-OV-3): > 100 µM (inactive)
- GI50 (U-251): > 100 µM (inactive)
- GI50 (NCI-H23): > 100 µM (inactive)
- GI50 (K562): > 100 µM (inactive)
- GI50 (A498): > 100 µM (inactive)
- GI50 (SW-620): > 100 µM (inactive)
- GI50 (BT-549): > 100 µM (inactive)
- GI50 (RPMI-8226): > 100 µM (inactive)
- GI50 (Hs-578T): > 100 µM (inactive)
- GI50 (SR): > 100 µM (inactive)
- GI50 (UACC-62): > 100 µM (inactive)
- GI50 (SNB-19): > 100 µM (inactive)
- GI50 (KM12): > 100 µM (inactive)
- GI50 (NCI-H522): > 100 µM (inactive)
- GI50 (OVCAR-5): > 100 µM (inactive)
- GI50 (SK-MEL-28): > 100 µM (inactive)
- GI50 (UO-31): > 100 µM (inactive)
- GI50 (Malme-3M): > 100 µM (inactive)
- GI50 (EKVX): > 100 µM (inactive)
- GI50 (A549): > 100 µM (inactive)
- GI50 (HL-60): > 10 µM (inactive)
- GI50 (HCT-116): > 100 µM (inactive)
- GI50 (MCF7): > 100 µM (inactive)
- GI50 (HT-29): > 100 µM (inactive)
- GI50 (MDA-N): > 100 µM (inactive)
- GI50 (NCI/ADR-RES): > 100 µM (inactive)
- GI50 (T47D): > 100 µM (inactive)
- GI50 (COLO 205): > 100 µM (inactive)
- GI50 (OVCAR-4): > 100 µM (inactive)
- GI50 (IGROV-1): > 100 µM (inactive)
- GI50 (PC-3): > 100 µM (inactive)
